The text below walks through data of EP1582213A1, “Use of adenosine for treating surgery related ischemia” (Ludwig-Maximilians-Universität München, priority 2004, dated 2005).

Some results are limits rather than exact numbers.

Holding throughout (type): in vivo, human
Experiment [1] is described as follows: Quick test (prothrombin time) on blood samples of patients after partial liver resection. How it is done:
(§1) Adenosine group: The members of this group were experiencing liver trauma during resection and additional organ ischemia during resection (Pringle-manoeuvre, duration 30 to 45 minutes). Liver protection was realised by intermitting central venous administration of adenosine (infusion duration 10 minutes, 120 to 150 µg/kg body weight/min) 20 minutes prior to resection/ischemia, and a new continuous infusion immediately after reperfusion (infusion duration 70 to 90 minutes, 120 to 150 µg/kg body weight/min).
(§2) The following tests were carried out in order to assess the post-operational organ functions: • 1. Quick test • 2. Determination of the bilirubin • 3. Lactate for monitoring the energetic situation
(§3) Any of the results obtained by applying these tests on blood samples taken from the members of the various study groups, are depicted in table 1: Table 1:
The quick test serves as a parameter for the assessment of the protein synthesis performance of the liver after the procedure.

Experiment [2] is described as follows: Determination of bilirubin in blood samples of patients after partial liver resection. How it is done:
as §1, §2
Any of the results obtained by applying these tests on blood samples taken from the members of the various study groups, are depicted in table 1: Table 1: […]

Experiment [3] is described as follows: Lactate in serum for monitoring the energetic situation after partial liver resection. How it is done:
as §1, §2, §3
Also using lactate as a parameter for cytoprotective effects confirms the significant effectiveness of adenosine administration. The lactate concentration in serum is regarded as a marker for the extent of anaerobic metabolism due to lack of oxygen caused by a cellular lack of energy. The lactate concentrations in the serum are highest post-procedure in group 2, where surgical liver trauma and ischemia/reperfusion was combined.

In another experiment the test system is interleukin 6. The experiment is described as follows: Interleukin 6 titre in blood of patients before and after liver resection (Fig. 2). Conditions: post-procedure increase, first and second day after resection; adenosine group vs. control groups; three to five patients per group. How it is done:
as §1
(§4) To assess protection conferred by adenosine on the anti-inflammation branch, both interleukin 6 and granulocyte functions were determined, whereby the results are presented in Figs. 2 and 3.
As depicted in Fig. 2, the level of interleukin 6 increased in any of the four groups, whereby each group consisted of three to five patients. Such increase is typically observed as a post-procedure reaction. The serum titres of the pro-inflammatory cytokine interleukin 6 can increase by three magnitudes compared to the pre-procedure titre and were highest in control group 2, where both surgical liver trauma and ischemia/reperfusion were combined.

Experiment [4] relates to beta 2 adhesion molecules on circulating granulocytes. Kind of experiment: Granulocyte function: expression of beta 2-integrins on circulating granulocytes, FACScan with FITC marked anti-CD18 antibody (Fig. 3). Conditions: observed immediately after ischemia and reperfusion; adenosine administered prior and after ischemia; vs. control groups 1 and 2. How it is done:
as §1, §4
The further parameter for anti-inflammation, i. e. granulocyte function, was measured as the inhibition of potential cytotoxic functions of white blood cells due to liver ischemia which was measured using the expression of beta 2-intergrins through the monoclonal anti-CD18 antibody. More particularly, the expression was determined prior to ischemia and 3, 30 and 120 minutes after reperfusion. The cells were analysed using a FACScan and a FITC marked anti-CD18 antibody. […] As indicated in Fig. 3 $ p < 0.05 vs. control group 1, # p < 0.05 vs. control group 2.

Where [5] appears, read: second postoperative day, same regimen, mean.
Setting [6] is: first postoperative day, adenosine 120 to 150 µg/kg body weight/min prior to resection/ischemia and after reperfusion, mean.

As for `Nc1ncnc2c1ncn2[C@@H]1O[C@H](CO)[C@@H](O)[C@H]1O` [Adenosine, adenosine], the “value of the quick test on the first and second day after surgery (liver synthesis performance)” value in experiment [1] (adenosine group compared with the control groups) is given as “higher in the adenosine group”. For the same molecule, the “PT(Quick)1” value in experiment [1] (first postoperative day, partial liver resection with Pringle-manoeuvre 30 to 45 minutes, adenosine central venous 120 to 150 µg/kg body weight/min, 10 minutes given 20 minutes prior to resection/ischemia and 70 to 90 minutes after reperfusion, mean) is “#*66%”. The “PT(Quick)pre” value in experiment [1] (preoperative baseline, Prothrombin Time expressed as Quick-values, mean of adenosine group, norm 70-100 %) worked out at 100%. The “PT(Quick)2” value in experiment [1] (setting [5]) stood at 72%. Moreover, the bilirubin concentration entry in experiment [2] (adenosine group, post-procedure vs. pre-procedure values) is given as “remained unchanged compared to pre- procedure values”. For the same molecule, the bili-1 entry in experiment [2] (setting [6]) is “#0,6 mg/dI”. In addition, the bili pre in experiment [2] (preoperative baseline, bilirubin, mean of adenosine group, norm <1,0) is recorded as 0,4 mg/dI. Also, the bili-2 result in experiment [2] (setting [5]) is recorded as “#0,5 mg/dI”. The Lactate-1 in experiment [3] (setting [6]) is 1,8 mmo I/I. Also, the “initial increase in the lactate on the first post-procedure day” value in experiment [3] (intravenous systemic administration of adenosine prior and after resection and ischemia, compared with control group 2) is reported as “less pronounced”. Further, the Lactat pre in experiment [3] (preoperative baseline, lactate-concentration, mean of adenosine group, norm <2) was <1,0 mmo I/I. In addition, the Lactate-2 in experiment [3] (setting [5]) is reported as 1,2 mmo I/I. Besides, the “IL 6 titre” value in the experiment with interleukin 6 is given as “significantly less pronounced”. The “activation of granulocytes circulating in the blood” value in experiment [4] was “effectively avoided”.
